What follows are molecules tested against Signal transducer and activator of transcription 3 (Homo sapiens, UniProt P40763) (assay: Inhibition of STAT3 phosphorylation in human MDA-MB-231 cells by sandwich ELISA).
Signal transducer and activator of transcription 3, sequence (P40763 whole entry): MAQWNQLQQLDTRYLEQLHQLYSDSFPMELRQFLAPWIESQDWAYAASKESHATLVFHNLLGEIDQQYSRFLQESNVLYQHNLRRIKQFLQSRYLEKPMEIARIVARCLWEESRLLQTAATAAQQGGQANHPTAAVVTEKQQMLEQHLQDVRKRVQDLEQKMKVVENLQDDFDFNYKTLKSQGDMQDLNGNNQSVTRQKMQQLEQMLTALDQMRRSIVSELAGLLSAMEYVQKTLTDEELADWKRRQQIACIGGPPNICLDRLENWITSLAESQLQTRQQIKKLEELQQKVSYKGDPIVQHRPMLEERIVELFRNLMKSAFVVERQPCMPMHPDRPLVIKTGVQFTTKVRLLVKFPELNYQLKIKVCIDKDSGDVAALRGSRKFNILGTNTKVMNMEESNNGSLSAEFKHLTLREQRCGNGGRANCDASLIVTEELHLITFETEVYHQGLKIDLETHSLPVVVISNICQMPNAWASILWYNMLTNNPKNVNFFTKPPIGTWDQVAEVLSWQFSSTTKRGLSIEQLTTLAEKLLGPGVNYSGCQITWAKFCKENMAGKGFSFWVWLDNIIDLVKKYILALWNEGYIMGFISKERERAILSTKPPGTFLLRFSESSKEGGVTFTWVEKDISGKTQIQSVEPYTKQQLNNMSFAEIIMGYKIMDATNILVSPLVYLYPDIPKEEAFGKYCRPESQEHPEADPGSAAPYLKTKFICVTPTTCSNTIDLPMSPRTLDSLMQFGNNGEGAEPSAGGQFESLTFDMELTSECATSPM

Row | IC50 [µM] | SMILES
1 | 0.23 | CC(C)(C)OC(=O)c1ccc(NC(=O)c2ccc(Cl)c(S(N)(=O)=O)c2)cc1
2 | 0.72 | COc1cc(NC(=O)c2ccc(Cl)c(S(N)(=O)=O)c2)cc(OC)c1OC
3 | 0.92 | CC(C)(C)OC(=O)c1ccc(NC(=O)c2cccc(S(N)(=O)=O)c2)cc1
4 | 0.21 | O=C(Nc1ccc([N+](=O)[O-])cc1Cl)c1cc(Cl)ccc1O [5-chloro-N-(2-chloro-4-nitrophenyl)-2-hydroxybenzamide]
